Assay results from patent US4753953A, “Pyridonecarboxylic acid derivatives and antibacterial pharmaceutical compositions thereof” (priority 1985, dated 1988).
Converted amounts (≈) assume the structure as drawn. Where two headings read alike, the source gives them in different places.

Legend:
[1] = tested on: S. epidermidis IID 866; assay: MIC, in vitro antibacterial activity (standard strains); type: cell-based; details: Staphylococcus epidermidis, IID866; 10^6 cells/ml; Gram +; read-out: MIC
[2] = tested on: Pst. micros UPI 5464-1; assay: as above; type: cell-based; details: Parvimonas micra, UPI54641; 10^6 cells/ml; Gram +; read-out: MIC
[3] = tested on: F. varium KYA 8501; assay: as above; type: cell-based; details: Fusobacterium varium, KYA8501; 10^6 cells/ml; Gram -; read-out: MIC
[4] = tested on: P. mirabilis IID 994; assay: as above; type: cell-based; details: Proteus mirabilis, IID994; 10^6 cells/ml; Gram -; read-out: MIC
[5] = tested on: S. pyogenes IID 692; assay: as above; type: cell-based, Streptococcus pyogenes; details: Streptococcus pyogenes, IID692; 10^6 cells/ml; Gram +; read-out: MIC
[6] = tested on: C. ramosum; assay: as above; type: cell-based; details: Thomasclavelia ramosa; 10^6 cells/ml; Gram +; read-out: MIC
[7] = tested on: S. aureus Smith; assay: as above; type: cell-based, Staphylococcus aureus; details: Staphylococcus aureus; 10^6 cells/ml; Gram +; read-out: MIC
[8] = tested on: Clostridium difficile I-E; assay: as above; type: cell-based; details: Clostridioides difficile; 10^6 cells/ml; Gram +
[9] = tested on: Acinetobacter anitratus IID 876; assay: as above; type: cell-based; details: Acinetobacter calcoaceticus, IID876; 10^6 cells/ml; Gram -; read-out: MIC
[10] = tested on: S. pneumoniae IID 552; assay: as above; type: cell-based; details: Streptococcus pneumoniae, IID552; 10^6 cells/ml; Gram +; read-out: MIC
[11] = tested on: B. fragilis 0558; assay: as above; type: cell-based, Bacteroides fragilis; details: Bacteroides fragilis, 0558; 10^6 cells/ml; Gram -; read-out: MIC
[12] = tested on: Escherichia coli NIHJ JC-2; assay: as above; type: cell-based; details: Escherichia coli, NIHJJC2; 10^6 cells/ml; Gram -; read-out: MIC
[13] = tested on: Shigella sonnei IID 969; assay: as above; type: cell-based; details: Shigella sonnei, IID969; 10^6 cells/ml; Gram -; read-out: MIC
Protocol: Minimal inhibitory concentrations (MICs) were determined in accordance with the method recommended by Japan Society of Chemotherapy.

[14] = tested on: B. fragilis 25285; assay: as above; type: cell-based, Bacteroides fragilis; details: Bacteroides fragilis, 25285; 10^6 cells/ml; Gram -; read-out: MIC
[15] = tested on: E. limosum KYA 8486; assay: as above; type: cell-based; details: Eubacterium limosum, KYA8486; 10^6 cells/ml; Gram +; read-out: MIC
[16] = tested on: Veillonella parvula KYA 10790; assay: as above; type: cell-based; details: Veillonella parvula, KYA10790; 10^6 cells/ml; Gram -; read-out: MIC
[17] = tested on: Klebsiella pneumoniae KY(GN)6445; assay: as above; type: cell-based; details: Klebsiella pneumoniae; 10^6 cells/ml; Gram -; read-out: MIC
[18] = tested on: C. perfringens KYA 13123; assay: microbe, parasite or virus in culture; type: cell-based; details: Clostridium perfringens, KYA13123
[19] = tested on: Bacteroides fragilis GM 7000; assay: MIC, in vitro antibacterial activity (standard strains); type: cell-based; details: Bacteroides fragilis, GM7000; 10^6 cells/ml; Gram -; read-out: MIC
[20] = tested on: Yersinia enterocolitica IID 981; assay: as above; type: cell-based; details: Yersinia enterocolitica, IID981; 10^6 cells/ml; Gram -; read-out: MIC
[21] = tested on: F. necrophorum S-45; assay: as above; type: cell-based; details: Fusobacterium necrophorum, S45; 10^6 cells/ml; Gram -; read-out: MIC
[22] = tested on: K. pneumoniae 1-220S; assay: as above; type: cell-based, Klebsiella pneumoniae; details: Klebsiella pneumoniae, 1220S; 10^6 cells/ml; Gram -; read-out: MIC
[23] = tested on: Streptococcus pyogenes (S-8); assay: as above; type: cell-based; details: Streptococcus pyogenes; 10^6 cells/ml; Gram +; read-out: MIC
[24] = tested on: E. coli ML 4707; assay: as above; type: cell-based, Escherichia coli; details: Escherichia coli, ML4707, 10^6 cells/ml; Gram -; Table 1; read-out: MIC
[25] = tested on: Enterobacter cloacae IID 977; assay: as above; type: cell-based; details: Enterobacter cloacae, IID977; 10^6 cells/ml; Gram -; read-out: MIC
[26] = tested on: P. maltophilia GIFU 2491; assay: as above; type: cell-based; details: Stenotrophomonas maltophilia, GIFU2491; 10^6 cells/ml; Gram -; read-out: MIC
[27] = tested on: Proteus vulgaris IFO 3167; assay: as above; type: cell-based; details: Proteus vulgaris, IFO3167; 10^6 cells/ml; Gram -; read-out: MIC
[28] = tested on: Peptococcus magnus KY 017; assay: as above; type: cell-based; details: Finegoldia magna, KY017; 10^6 cells/ml; Gram +; read-out: MIC
[29] = tested on: Alcaligenes faecalis 0114002; assay: as above; type: cell-based; details: Alcaligenes faecalis, 0114002; 10^6 cells/ml; Gram -; read-out: MIC
[30] = tested on: Staphylococcus aureus 209 P; assay: as above; type: cell-based; details: Staphylococcus aureus, 209P; 10^6 cells/ml; Gram +; read-out: MIC
[31] = tested on: Propionibacterium acens 11828; assay: as above; type: cell-based; details: Propionibacterium, 11828; 10^6 cells/ml; Gram +; read-out: MIC
[32] = tested on: Pseudomonas aeruginosa V-1; assay: as above; type: cell-based; details: Pseudomonas aeruginosa, V1
[33] = 10^6 cells/ml, Gram -, read-out: MIC

| SMILES | MIC [1] | MIC [2] | MIC [3] | MIC [4] | MIC [5] | MIC [6] | MIC [7] | MIC [8] | MIC [9] | MIC [10] | MIC [11] | MIC [12] | MIC [13] | MIC [14] | MIC [15] | MIC [16] | MIC [17] | MIC [18] | MIC [19] | MIC [20] | further results |
| --- | --- | --- | --- | --- | --- | --- | --- | --- | --- | --- | --- | --- | --- | --- | --- | --- | --- | --- | --- | --- | --- |
| CC1COc2c(N3C[C@@H](N)[C@@H](C)C3)c(F)cc3c(=O)c(C(=O)O)cn1c23.Cl (relative stereo) [Example 29, 10-(cis-3-Amino-4-methyl-1-pyrrolidinyl)-9-fluoro-2,3-dihydro-3-methyl-7-oxo-7H-pyrido[1,2,3-de][1,4]benzoxazine-6-carboxylic acid hydrochloride] | 0.2 µg/mL | 0.39 µg/mL | 6.25 µg/mL | 0.1 µg/mL | 0.39 µg/mL | 12.5 µg/mL | 0.2 µg/mL | 6.25 µg/mL | 1.56 µg/mL | 0.39 µg/mL | 1.56 µg/mL | 0.025 µg/mL | 0.05 µg/mL | 1.56 µg/mL | 6.25 µg/mL | 0.39 µg/mL | 0.05 µg/mL | 0.39 µg/mL | 3.13 µg/mL | 0.2 µg/mL | MIC [21]: 0.78 µg/mL; MIC [22]: 0.2 µg/mL; MIC [23]: 0.39 µg/mL; MIC [24]: 0.05 µg/mL; MIC [25]: 0.2 µg/mL; MIC [26]: 1.56 µg/mL; MIC [27]: 0.05 µg/mL; MIC [28]: 0.78 µg/mL; MIC [29]: 1.56 µg/mL; MIC [30]: 0.2 µg/mL; MIC [31]: 12.5 µg/mL; MIC [32, 33]: 0.39 µg/mL |
| C[C@H]1CN(c2c(F)cc3c(=O)c(C(=O)O)cn(CCF)c3c2F)C[C@H]1N (relative stereo) [Example 25, 7-(cis-b 3-Amino-4-methyl-1-pyrrolidinyl)-6,8-difluoro-1-(2-fluoroethyl)-1,4-dihydro-4-oxo-3-quinolinecarboxylic acid] | 0.39 µg/mL (≈ 1.06 µM) | 0.78 µg/mL (≈ 2.11 µM) | 6.25 µg/mL (≈ 16.9 µM) | 0.1 µg/mL (≈ 0.271 µM) | 0.78 µg/mL (≈ 2.11 µM) | 25 µg/mL (≈ 67.7 µM) | 0.39 µg/mL (≈ 1.06 µM) | 6.25 µg/mL | 1.56 µg/mL (≈ 4.22 µM) | 0.78 µg/mL (≈ 2.11 µM) | 3.13 µg/mL (≈ 8.47 µM) | 0.05 µg/mL (≈ 0.135 µM) | 0.78 µg/mL (≈ 2.11 µM) | 3.13 µg/mL (≈ 8.47 µM) | 6.25 µg/mL (≈ 16.9 µM) | 0.78 µg/mL (≈ 2.11 µM) | 0.1 µg/mL (≈ 0.271 µM) | 0.78 µg/mL (≈ 2.11 µM) | 6.25 µg/mL (≈ 16.9 µM) | 0.1 µg/mL (≈ 0.271 µM) | MIC [21]: 3.13 µg/mL (≈ 8.47 µM); MIC [22]: 0.2 µg/mL (≈ 0.542 µM); MIC [23]: 0.78 µg/mL (≈ 2.11 µM); MIC [24]: 0.05 µg/mL (≈ 0.135 µM); MIC [25]: 0.1 µg/mL (≈ 0.271 µM); MIC [26]: 1.56 µg/mL (≈ 4.22 µM); MIC [27]: 0.05 µg/mL (≈ 0.135 µM); MIC [28]: 1.56 µg/mL (≈ 4.22 µM); MIC [29]: 0.78 µg/mL (≈ 2.11 µM); MIC [30]: 0.2 µg/mL (≈ 0.542 µM); MIC [31]: 25 µg/mL (≈ 67.7 µM); MIC [32]: 0.78 µg/mL (≈ 2.11 µM) |
| CCNCC1CN(c2c(F)cc3c(=O)c(C(=O)O)cn(C4CC4)c3c2Cl)CC1C (centres unmarked) [Example 14, 8-Chloro-1-cyclopropyl-7-(3-ethylaminomethyl-4-methyl-1-pyrrolidinyl)-6-fluoro-1,4-dihydro-4-oxo-3-quinolinecarboxylic acid] | 0.0125 µg/mL (≈ 0.0296 µM) | 0.39 µg/mL (≈ 0.924 µM) | 1.56 µg/mL (≈ 3.7 µM) | 0.1 µg/mL (≈ 0.237 µM) | 0.05 µg/mL (≈ 0.119 µM) | 0.2 µg/mL (≈ 0.474 µM) | 0.0125 µg/mL (≈ 0.0296 µM) | 0.1 µg/mL | 0.1 µg/mL (≈ 0.237 µM) | 0.05 µg/mL (≈ 0.119 µM) | ≤ 0.05 µg/mL | 0.025 µg/mL (≈ 0.0593 µM) | 0.025 µg/mL (≈ 0.0593 µM) | 0.05 µg/mL (≈ 0.119 µM) | 0.78 µg/mL (≈ 1.85 µM) | 0.39 µg/mL (≈ 0.924 µM) | 0.05 µg/mL (≈ 0.119 µM) | ≤ 0.05 µg/mL | 0.1 µg/mL (≈ 0.237 µM) | 0.2 µg/mL (≈ 0.474 µM) | MIC [21]: 0.1 µg/mL (≈ 0.237 µM); MIC [22]: 0.2 µg/mL (≈ 0.474 µM); MIC [23]: 0.05 µg/mL (≈ 0.119 µM); MIC [24]: 0.05 µg/mL (≈ 0.119 µM); MIC [25]: 0.2 µg/mL (≈ 0.474 µM); MIC [26]: 0.39 µg/mL (≈ 0.924 µM); MIC [27]: 0.05 µg/mL (≈ 0.119 µM); MIC [28]: ≤ 0.05 µg/mL; MIC [29]: 0.78 µg/mL (≈ 1.85 µM); MIC [30]: 0.0125 µg/mL (≈ 0.0296 µM); MIC [31]: 1.56 µg/mL (≈ 3.7 µM); MIC [32, 33]: 0.78 µg/mL (≈ 1.85 µM) |
| C[C@H]1CN(c2c(F)cc3c(=O)c(C(=O)O)cn4c3c2OC[C@@H]4C)C[C@H]1N.Cl (mixture of isomers) [Example 31, (3S)-10-(cis-3-Amino-4-methyl-1-pyrrolidinyl)-9-fluoro-2,3-dihydro-3-methyl-7-oxo-7H-pyrido[1,2,3-de][1,4]benzoxazine-6-carboxylic acid hydrochloride] | 0.2 µg/mL | 0.2 µg/mL | 3.13 µg/mL | 0.1 µg/mL | 0.2 µg/mL | 6.25 µg/mL | 0.2 µg/mL | 3.13 µg/mL | 1.56 µg/mL | 0.2 µg/mL | 0.78 µg/mL | 0.025 µg/mL | 0.05 µg/mL | 0.78 µg/mL | 3.13 µg/mL | 0.2 µg/mL | 0.05 µg/mL | 0.2 µg/mL | 1.56 µg/mL | 0.1 µg/mL | MIC [21]: 0.39 µg/mL; MIC [22]: 0.1 µg/mL; MIC [23]: 0.2 µg/mL; MIC [24]: 0.025 µg/mL; MIC [25]: 0.1 µg/mL; MIC [26]: 0.78 µg/mL; MIC [27]: 0.1 µg/mL; MIC [28]: 0.2 µg/mL; MIC [29]: 0.39 µg/mL; MIC [30]: 0.2 µg/mL; MIC [31]: 6.25 µg/mL; MIC [32, 33]: 0.39 µg/mL |
